Assay: gradient 5% acetonitrile 3 min, to 50% in 2 min, to 85% in 15 min, held 3 min, 100 µL/min
Conditions: column: Zorbax Extend-C18 2.1 x 50 mm; eluents: water / acetonitrile, 0.1% formic acid
In short: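 Using water and acetonitrile that each contained 0.1% formic acid, mixtures of ~100 pure standards were separated at 100 μL/min on a Zorbax Extend-C18 column (2.1 × 50 mm, 1.8 μm). The HPLC fed a quadrupole time-of-flight mass spectrometer working in positive and negative ionization mode, with dead and dwell volumes of 40 μL and 900 μL. Data were acquired over 3 months. Retention time was read from computationally picked adduct peaks after manual inspection of each.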

| SMILES | RP-LC retention time |
| --- | --- |
| COc1ccc(NC(=O)c2c(O)c3cccnc3n(-c3ccc(F)cc3)c2=O)cc1F | 1210 s |
| CCc1ccc(N2C(=O)C3N=NN(Cc4nc(-c5ccc(Br)cc5)no4)C3C2=O)cc1 (centres undefined) | 1130 s |
| COC(=O)c1cc(OC)c(OC)cc1NC(=O)CCc1ccc(C)o1 | 919 s |
| Cc1noc([C@@H]2CN(C(=O)c3occc3C)C[C@H]2CO)n1 | 642 s |
| Cc1cc(N2CCCCC2)nc(N2CCN(C(=O)C3CCCCC3)CC2)n1 | 728 s |
| O=C(NC(c1ccccc1)c1nnc(N2CCOCC2)o1)c1cccc(Cl)c1 (centres undefined) | 796 s |
| O=C(NC1CCCC1)N1CCN(c2ncccc2-c2nnc(C3CC3)o2)CC1 | 719 s |
| COc1ccc(S(=O)(=O)Nc2ccc3nc(-c4ccc(F)cc4)cc(OC)c3c2)cc1 | 774 s |
| CCc1nc(OCC(=O)NCc2ccc3c(c2)OCO3)c2ccccc2n1 | 902 s |
| CCc1nc(-c2csc(S(=O)(=O)N3CCCC(C(=O)N(C)c4ccc(C)cc4)C3)c2)no1 (centres undefined) | 1060 s |
| COc1ccc(C(=O)N2CC(n3cc(COCC4CC4)nn3)C2)cn1 | 679 s |
| CCOc1ccc(NC(=O)c2c(NC(=O)c3ccncc3)sc3c2CCC3)cc1 | 1270 s |
| COc1ccc(NC(=O)c2cccn2-c2cccnc2)cc1OC | 678 s |
| Cc1ccc(-c2nc(CCN(C)C(=O)NCCc3ccccc3)no2)cc1 | 956 s |
| CCCC(=O)NC1CCN(c2ccc(F)cc2)C1=O (centres undefined) | 659 s |
| COc1cc(-c2nc(-c3ccc4c(c3)nnn4C)no2)cc(OC)c1OC | 937 s |
| COc1ccc(Cl)cc1NC(=O)C1CCN(S(C)(=O)=O)c2cc(C)ccc2O1 (centres undefined) | 1110 s |
| O=C(NCCCNC(=O)NC1CCCCC1)NC1CCCCC1 | 673 s |
| CCn1c(=O)c(C)nc2cc(-c3noc(C4CC(=O)N(c5cccc(Cl)c5)C4)n3)ccc21 (centres undefined) | 966 s |
| CC(C)Cc1cc(-c2nnc3sc(COc4ccccc4Cl)nn23)n[nH]1 | 941 s |
| CCc1ccc(N2C(=O)C3N=NN(c4cccc(OC)c4)C3C2=O)cc1 (centres undefined) | 1020 s |
| CCCCC(=O)N1CCN(C(=O)c2cc3cc(Br)ccc3[nH]2)CC1 | 873 s |
| CCC(C)N(CCNC(=O)Cn1c(=O)oc2ccccc21)Cc1cccs1 (centres undefined) | 652 s |
| Cc1cccc(C)c1-n1ccn(Cc2nc(-c3ccccc3)no2)c(=O)c1=O | 865 s |
| CCN(CC)C(=O)c1ccc2c(c1)CCCN2S(C)(=O)=O | 748 s |

| SMILES | RP-LC retention time |
| --- | --- |
| CNC(=O)c1cc(-c2cccc(OC)c2)n[nH]1 | 665 s |
| O=C(O)c1nnn(-c2cccc(Cl)c2)c1-c1cccnc1 | 680 s |
| COc1cc(C(=O)N2CCC(CC(=O)N3CCOCC3)CC2)cc(OC)c1OC | 618 s |
| COc1ccc(NC(=O)N2CCCC2c2nc(-c3ccccc3OC)no2)cc1 (centres undefined) | 826 s |
| Cc1ccc(-c2ncccc2CNS(=O)(=O)c2ccc(Cl)cc2)cc1 | 766 s |
| O=C(CCc1ccccc1)NCCc1c[nH]c2ccc(Cl)cc12 | 895 s |
| Cc1ccc(C(=O)CC2(O)C(=O)Nc3ccccc32)cc1 (centres undefined) | 704 s |
| Cc1cccc(-n2c(=O)c3c(cc(C)n3C)n(CC(=O)Nc3c(C)cc(C)cc3C)c2=O)c1 | 914 s |
| c1cc(-c2noc(-c3n[nH]c4c3CCCC4)n2)cc(-c2ccn[nH]2)c1 | 836 s |
| COc1ccc(-c2nc3cccnc3n2C2CCN(C(=O)c3ccc4c(c3)OCO4)C2)cc1 (centres undefined) | 716 s |
| Cc1cc(C(=O)N2CCC(CC(=O)NC3CC3)C2)n(C)n1 (centres undefined) | 585 s |
| CCc1nc2cc(-c3noc(-c4cc(F)ccc4F)n3)ccc2o1 | 1180 s |
| CCOc1cccc(CN2C[C@@H](CO)[C@H](c3ccncc3)C2)c1 | 546 s |
| O=S(=O)(c1ccc(F)cc1F)N1CC(COc2ccncc2)C2(CCOCC2)C1 (centres undefined) | 613 s |
| COc1ccc(-c2ccc(C#N)c(SCC(=O)N3CCN(C)CC3)n2)cc1 | 583 s |
| O=C(O)c1cccnc1NCc1cccc(F)c1 | 655 s |
| CCCN1C(=O)CCc2cc(NC(=O)COc3ccc(F)cc3)ccc21 | 888 s |
| Cc1cc(-c2csc(S(=O)(=O)N3CCN(CCOc4ccc(Cl)cc4)CC3)c2)on1 | 760 s |
| O=C(Cc1ccsc1)N1CCC(Nc2ncnc3c2CCC3)CC1 | 673 s |
| O=C(Nc1ccc2c(c1)OCCO2)c1cccc(N2CCNC(c3ccccc3)C2)n1 (centres undefined) | 668 s |
| Cc1cc(N2CCOCC2)n2nc(-c3ccc(C(C)(C)C)cc3)nc2n1 | 960 s |
| COc1cccc(NC(=O)Cn2cnc3c(sc4nc(-c5ccccc5)ccc43)c2=O)c1 | 982 s |
| CCCn1cc(CCNC(=O)c2cc(Cl)ccc2F)c2cccnc21 | 852 s |
| CCCCN1C(SCC(=O)NCc2cccs2)=NS(=O)(=O)c2ccccc21 | 782 s |
| c1cncc(-c2nc(-c3ccc4c(c3)nnn4CCN3CCCCC3)no2)c1 | 614 s |

More lines, now with the values ahead:

| RP-LC retention time | SMILES |
| --- | --- |
| 620 s | O=C(COc1ccccc1)N1CC(n2cnnc2C2CC2)C1 |
| 781 s | Cn1nc(C(=O)N2CCC(Nc3cccnc3)C2)c2ccccc21 (centres undefined) |
| 621 s | COC(=O)C(C)NC(=O)N1CCC2(CC1)NC(=O)c1ccccc1O2 (centres undefined) |
| 725 s | Cc1ccccc1N1CCN(C(=O)C2CC(=O)N(CCc3ccccc3)C2)CC1 (centres undefined) |
| 906 s | COc1ccc(-c2nn(-c3ccccc3)cc2C2NC(=O)NC(C)=C2C(=O)OC(C)C)cc1 (centres undefined) |
| 857 s | COC(=O)CNC(=O)C1c2ccccc2C(=O)N(Cc2ccccc2)C12CCCC2 (centres undefined) |
| 902 s | CCn1c(=O)c(N2CCN(C(=O)NCCc3ccccc3)CC2)nc2ccccc21 |
| 944 s | CC(C)c1ccc(NC(=O)c2cn(C)nc2S(=O)(=O)N2CCSCC2)cc1 |
| 1080 s | COC(=O)c1cc(S(=O)(=O)N2CCN(c3cccc(C)c3)C(C)C2)c(C)n1C (centres undefined) |
| 764 s | O=C(Cn1cnc2c(nc3n2CCCCC3)c1=O)N1CCC(Cc2ccccc2)CC1 |
| 642 s | CCCCNC(=O)C1CCN(c2cc(N3CCCCC3)ncn2)CC1 |
| 725 s | COc1ccc(N2CCN(C(=O)CN3C(=O)c4ccccc4Sc4ncccc43)CC2)cc1 |
| 582 s | CN1CCN(CCCNC(=O)CCCn2c(=O)c3cccn3c3ccc(F)cc32)CC1 |
| 832 s | Cc1c(N2CCC(C(=O)NCC3CCCO3)CC2)c(=O)n(CC(C)C)c(=O)n1-c1ccccc1 (centres undefined) |
| 684 s | C=CCn1c(C)c(CC(=O)NC2CCCC2)c(=O)n2nc(-c3ccccc3)nc12 |
| 595 s | Cn1cc(CCN2CCC(C(=O)NCc3cccs3)CC2)c2cccnc21 |
| 638 s | CCc1ccccc1NC(=O)Cn1c(N)nc(C(C)C)cc1=O |
| 605 s | CC(=O)Nc1c(C)nn(-c2ccccc2)c1N1CCC(C(=O)NCCCN2CCCC2=O)CC1 |
| 739 s | Cn1ccc2cc(S(=O)(=O)N3CCC(C(=O)NCC4CCCO4)CC3)ccc21 (centres undefined) |
| 1040 s | CCc1nc(-c2csc(S(=O)(=O)N3CCC(C(=O)Nc4ccc(F)cc4Cl)CC3)c2)no1 |

| RP-LC retention time | SMILES |
| --- | --- |
| 557 s | O=C(NCCN1CCN(C(=O)c2cc(=O)c3ccccc3o2)CC1)c1ccsc1 |
| 1150 s | CCc1ccc(S(=O)(=O)N2CCC(c3noc(-c4ccccc4C)n3)CC2)cc1 |
| 993 s | CCc1cc(=O)n(CC(=O)N2CCCc3ccccc32)c(-n2nc(C)cc2C)n1 |
| 901 s | CCCCN(C(=O)c1ccc(C)cc1)C1(C(=O)NCc2ccccc2)CCN(C(C)=O)CC1 |
| 783 s | O=C(CN1C(=O)CCCc2ccccc21)NCCc1ccccc1 |
| 597 s | CCCN1CCN(C(=O)CN2CCN(C(=O)Nc3ccc(Br)cc3)CC2=O)CC1 |
| 674 s | N#Cc1cccc(NC(=O)Cn2nc3n(c2=O)CCCCC3)c1 |
| 677 s | Cn1c(N2CCN(C(=O)Cc3ccc(Cl)cc3)CC2)cc(=O)n(C)c1=O |
| 764 s | O=C(c1ccc(F)cc1Cl)N1CCC2(CC1)NC(=O)N(CCOc1ccccc1)C2=O |
| 644 s | CC(=O)c1ccc(NC(=O)c2cc(C)nc3ccccc23)cc1 |
| 682 s | Cn1cnc(S(=O)(=O)N2CCc3c(c(-c4nncn4Cc4ccccc4)nn3C)C2)c1 |
| 672 s | Cc1nn(-c2ccccc2)c(C)c1S(=O)(=O)N1CCC(C(=O)NCCN2CCCCCC2)CC1 |
| 1100 s | O=C(Cn1cccc1-c1nnc(-c2ccccc2)o1)N1CCN(c2ccc(Cl)cc2)CC1 |
| 677 s | CCCNC(=O)C1CCN(c2ccc(SCC(=O)Nc3ccc(C(=O)OCC)cc3)nn2)CC1 |
| 681 s | Cc1ccc(C)c(NC(=O)CSc2ccc(N3CCCC(C(=O)NC4CC4)C3)nn2)c1 (centres undefined) |
| 697 s | CCn1cnnc1C1CCCCN1C(=O)CCc1c[nH]c2ccccc12 (centres undefined) |
| 741 s | Cc1ccccc1S(=O)(=O)N1CCC2(CC1)NCCN=C2NCc1ccc(Cl)cc1 |
| 560 s | CCCN1CCN(CCCNC(=O)Cn2c3ccccc3c3cnn(C)c(=O)c32)CC1 |
| 817 s | COc1ccc2cc(C(=O)N3CCC(CC(=O)NCCc4c[nH]c5ccc(C)cc45)CC3)[nH]c2c1 |

— the METLIN SMRT retention time set (Domingo-Almenara et al. 2019)
